From ChEMBL document CHEMBL1201862, “PubChem BioAssay data set” (2004)
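In this assay, cells in 96-well plates receive the compound at five concentrations for 48 hours. Endpoints are linearly interpolated between the surrounding concentrations. GI50 = concentration required for 50% inhibition of growth.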 Active and inactive are the calls of the source. No stated cut-off is given here; in the data, active = GI50 up to about 1.1 µM and inactive = higher.

Columns and labels:
Experiment in all cases: NCI-60 cell line screen, 48 h
NCI-H23 = system: NCI-H23
NCI-H460 = system: NCI-H460
IGROV-1 = system: IGROV-1
TK-10 = system: TK-10
OVCAR-8 = system: OVCAR-8
HCT-116 = system: HCT-116
OVCAR-4 = system: OVCAR-4
SK-MEL-2 = system: SK-MEL-2
K562 = system: K562
MOLT-4 = system: MOLT-4
MDA-MB-435 = system: MDA-MB-435
UACC-62 = system: UACC-62
MDA-MB-231 = system: MDA-MB-231
CAKI-1 = system: CAKI-1
SR = system: SR
SF-539 = system: SF-539
MCF7 = system: MCF7
M14 = system: M14
DU-145 = system: DU-145
LOX IMVI = system: LOX IMVI

Compound	GI50 (NCI-H23)	GI50 (NCI-H460)	GI50 (IGROV-1)	GI50 (TK-10)	GI50 (OVCAR-8)	GI50 (HCT-116)	GI50 (OVCAR-4)	GI50 (SK-MEL-2)	GI50 (K562)	GI50 (MOLT-4)	GI50 (MDA-MB-435)	GI50 (UACC-62)	GI50 (MDA-MB-231)	GI50 (CAKI-1)	GI50 (SR)	GI50 (SF-539)	GI50 (MCF7)	GI50 (M14)	GI50 (DU-145)	GI50 (LOX IMVI)
O=CN1CCC23CC(O)CCC2C1Cc1cc(Oc2nnnn2-c2ccccc2)cc(O)c13 (stereo not given)	> 100 µM (inactive)	85.9 µM (inactive)	37.8 µM (inactive)	> 100 µM (inactive)	> 100 µM (inactive)	> 100 µM (inactive)	86.1 µM (inactive)	81.3 µM (inactive)	> 100 µM (inactive)	48.9 µM (inactive)	66.7 µM (inactive)	65.2 µM (inactive)	> 100 µM (inactive)	> 100 µM (inactive)	55 µM (inactive)	> 100 µM (inactive)	54 µM (inactive)	> 100 µM (inactive)	> 100 µM (inactive)	57.3 µM (inactive)
C=C(C)C(=O)O[C@H]1C[C@@]23O[C@@H]2CCC(=C[C@H]2OC(=O)C(=C)[C@H]12)COC3O (stereo not given in full)	> 100 µM (inactive)	> 100 µM (inactive)	> 100 µM (inactive)	> 100 µM (inactive)	39.6 µM (inactive)	18.9 µM (inactive)	> 100 µM (inactive)	70.3 µM (inactive)	20.2 µM (inactive)	28.7 µM (inactive)	44.3 µM (inactive)	54.1 µM (inactive)	> 100 µM (inactive)	> 100 µM (inactive)	24.7 µM (inactive)	> 100 µM (inactive)	30.6 µM (inactive)	57.5 µM (inactive)	> 100 µM (inactive)	14.9 µM (inactive)
CN(C)CCNC(=O)c1ccc(NCCCN(C)CCCNc2ccc(C(=O)NCCN(C)C)c3nc4ccccc4c(O)c23)c2c(O)c3ccccc3nc12	< 0.0122 µM (active)	< 0.01 µM (active)	< 0.01 µM (active)	0.16 µM (active)	< 0.01 µM (active)	< 0.01 µM (active)	< 0.0164 µM (active)	< 0.0211 µM (active)	0.0394 µM (active)	< 0.01 µM (active)	0.0101 µM (active)	0.0525 µM (active)	0.111 µM (active)	0.501 µM (active)	< 0.01 µM (active)	0.274 µM (active)	< 0.01 µM (active)	0.187 µM (active)	< 0.0114 µM (active)	< 0.01 µM (active)
CO[C@@]12[C@H](COC(N)=O)C3=C(C(=O)C(C)=C(N)C3=O)N1C[C@H]1[C@@H]2N1C (stereo not given in full) [PORFIROMYCIN]	0.506 µM (active)	0.128 µM (active)	5.62 µM (inactive)	16.3 µM (inactive)	3.95 µM (inactive)	2.22 µM (inactive)	9.68 µM (inactive)	13.5 µM (inactive)	7.5 µM (inactive)	0.543 µM (active)	12.3 µM (inactive)	0.466 µM (active)	9.73 µM (inactive)	0.948 µM (active)	0.409 µM (active)	3.56 µM (inactive)	0.714 µM (active)	0.65 µM (active)	0.282 µM (active)	0.794 µM (active)
COc1cc(C[C@H]2c3cc(OC)c(OC)cc3CCN2C)c(Oc2cc3c(cc2OC)-c2c(OC)c(OC)cc4c2[C@H](C3)N(C)CC4)cc1OC [THALICARPINE]	12.4 µM (inactive)	9.16 µM (inactive)	10.8 µM (inactive)	3.61 µM (inactive)	7.43 µM (inactive)	4.83 µM (inactive)	8.3 µM (inactive)	10 µM (inactive)	4.88 µM (inactive)	6.25 µM (inactive)	5.16 µM (inactive)	6.65 µM (inactive)	4.13 µM (inactive)	6.22 µM (inactive)	5.08 µM (inactive)	8.28 µM (inactive)	12.2 µM (inactive)	1.52 µM (inactive)	14 µM (inactive)	7.21 µM (inactive)
